Source: the NIST ThermoML archive (doi:10.1021/je500498m)

Test: xn = mol fraction of the nth substance listed
Settings: Liquid; for mass density / viscosity: 101 kPa; for mass density: Vibrating tube method; for speed of sound: 100 kPa, Sing-around technique in a fixed-path interferometer; for viscosity: Falling or rolling sphere viscometry

CCCCCCCCCCCCCCCC [hexadecane] + Cc1ccccc1
Settings | mass density [kg/m3] | speed of sound [m/s] | viscosity [mPa·s]
323.15 K, x2 = 0.4001 | 767.89 | – | –
323.15 K, x2 = 0.5 | 773.64 | – | –
323.15 K, x2 = 0.6001 | 780.71 | – | –
323.15 K, x2 = 0.7005 | 789.6 | – | –
323.15 K, x2 = 0.8001 | 801.12 | – | –
323.15 K, x2 = 0.8999 | 816.6 | – | –
333.15 K, x2 = 0 | 745.79 | 1212 | 1.54
333.15 K, x2 = 0.1002 | 748.7 | 1207.1 | 1.4
333.15 K, x2 = 0.2 | 752 | 1201.7 | 1.27
333.15 K, x2 = 0.3018 | 756 | 1196 | 1.15
333.15 K, x2 = 0.4001 | 760.53 | 1189.2 | 1.03
333.15 K, x2 = 0.5 | 766.1 | 1182.7 | 0.9
333.15 K, x2 = 0.6001 | 772.93 | 1175.6 | 0.79
333.15 K, x2 = 0.7005 | 781.29 | 1168.2 | 0.67
333.15 K, x2 = 0.8001 | 792.74 | 1161.7 | 0.56
333.15 K, x2 = 0.8999 | 807.75 | 1156.7 | 0.47
343.15 K, x2 = 0 | 738.9 | – | 1.31
343.15 K, x2 = 0.1002 | 741.7 | – | 1.21
343.15 K, x2 = 0.2 | 744.9 | – | 1.1
343.15 K, x2 = 0.3018 | 748.9 | – | 1
343.15 K, x2 = 0.4001 | 753.2 | – | 0.89
343.15 K, x2 = 0.5 | 758.6 | – | 0.8
343.15 K, x2 = 0.6001 | 765.2 | – | 0.69
343.15 K, x2 = 0.7005 | 773.6 | – | 0.6
343.15 K, x2 = 0.8001 | 784.3 | – | 0.51
343.15 K, x2 = 0.8999 | 798.8 | – | 0.43
353.15 K, x2 = 0 | 731.8 | – | 1.13
353.15 K, x2 = 0.1002 | 734.5 | – | 1.05
353.15 K, x2 = 0.2 | 737.7 | – | 0.96
353.15 K, x2 = 0.3018 | 741.4 | – | 0.87
353.15 K, x2 = 0.4001 | 745.7 | – | 0.79
353.15 K, x2 = 0.5 | 750.9 | – | 0.7
353.15 K, x2 = 0.6001 | 757.2 | – | 0.61
353.15 K, x2 = 0.7005 | 765.3 | – | 0.54
353.15 K, x2 = 0.8001 | 775.7 | – | 0.46
353.15 K, x2 = 0.8999 | 789.7 | – | 0.39
363.15 K, x2 = 0 | 724.7 | – | 0.99
363.15 K, x2 = 0.1002 | 727.3 | – | 0.92
363.15 K, x2 = 0.2 | 730.4 | – | 0.85
363.15 K, x2 = 0.3018 | 733.9 | – | 0.77
363.15 K, x2 = 0.4001 | 738 | – | 0.7
363.15 K, x2 = 0.5 | 743.1 | – | 0.62
363.15 K, x2 = 0.6001 | 749.2 | – | 0.55
363.15 K, x2 = 0.7005 | 756.9 | – | 0.48
363.15 K, x2 = 0.8001 | 767 | – | 0.4
363.15 K, x2 = 0.8999 | 780.4 | – | 0.33
373.15 K, x2 = 0 | 717.5 | – | 0.87
373.15 K, x2 = 0.1002 | 720 | – | 0.81
373.15 K, x2 = 0.2 | 722.9 | – | 0.76
373.15 K, x2 = 0.3018 | 726.3 | – | 0.69
373.15 K, x2 = 0.4001 | 730.3 | – | 0.64
373.15 K, x2 = 0.5 | 735.1 | – | 0.56
373.15 K, x2 = 0.6001 | 741 | – | –
373.15 K, x2 = 0.7005 | 748.5 | – | –
373.15 K, x2 = 0.8001 | 758 | – | –
